From patent US6586453B2, “Substituted thiazoles and the use thereof as inhibitors of plasminogen activator inhibitor-1” (3-Dimensional Pharmaceuticals, Inc., priority 2000, dated 2003)

Biological target: PAI-1 (Homo sapiens, UniProt P05121)
Assay: PAI-1 assay (direct chromogenic assay, inhibitory activity of PAI-1 against uPA)
Type: biochemical
Conditions: substrate N-CBZ-VAL-GLY-ARG p-nitroanilide, 10 minute incubation at 37° C., read-out: PAI-1 inhibitory activity in vitro, IC50
Procedure: The inhibitory activity of PAI-1 against uPA was measured by a direct chromogenic assay using the substrate N-CBZ-VAL-GLY-ARG p-nitroanilide. The tested compound was added to PAI-1 which had been diluted in activity assay buffer (0.05M Hepes, pH 7.5, 0.15M NaCl, containing 0.05% N-octyl-D-glucopyranoside and 250 μg/ml bovine serum albumin). After a 10 minute incubation at 37° C., uPA was added (0.04 units/assay), followed immediately by the addition of substrate. After reequilibration at 37° C., residual uPA activity was quantified by measuring the change in absorbance at 405 nm over 12 minutes. The concentration of active PAI-1 in the assays was the amount required to inhibit 80-85% of uPA as compared to samples containing uPA alone.
Compounds No. 1 to 37 were tested in the PAI-1 assay as described above.

Sequence of PAI-1 (P05121 24-402): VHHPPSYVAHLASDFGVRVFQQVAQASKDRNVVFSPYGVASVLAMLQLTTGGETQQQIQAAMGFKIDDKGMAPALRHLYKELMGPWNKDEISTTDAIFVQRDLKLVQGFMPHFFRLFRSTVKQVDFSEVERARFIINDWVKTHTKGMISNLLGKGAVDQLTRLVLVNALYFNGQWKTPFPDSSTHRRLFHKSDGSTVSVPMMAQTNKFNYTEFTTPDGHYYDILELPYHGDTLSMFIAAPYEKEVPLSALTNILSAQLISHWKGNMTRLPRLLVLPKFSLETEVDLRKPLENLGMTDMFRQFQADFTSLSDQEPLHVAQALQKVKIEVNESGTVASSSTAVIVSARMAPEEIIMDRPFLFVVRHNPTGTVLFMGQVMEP

| Structure (SMILES) | IC50 [µM] |
| --- | --- |
| CCc1cc2c(cc1-c1csc(Nc3ccc(C(=O)O)cc3)n1)C(C)(C)CCC2(C)C [Compound 2, 4-{[4-(3-ethyl-5,5,8,8-tetramethyl-2-5,6,7,8-tetrahydronaphthyl)-1,3-thiazol-2-yl]amino}benzoic acid] | 1.8 |
| CCc1cc2c(cc1-c1csc(Nc3cccc(C(=O)O)c3)n1)C(C)(C)CCC2(C)C [Compound 3] | 1.1 |
| N#Cc1ccc(Nc2nc(-c3ccc(-c4ccccc4)cc3)cs2)cc1 [Compound 11, 4-{[4-(4-phenylphenyl)-1,3-thiazol-2-yl]amino}benzenecarbonitrile] | 1.6 |
